The data set can be described thus: Degradation of crosslinking agent after incubation in saturated NO solution (1H NMR, FT-IR, UV-Vis). The format is physicochemical. Particulars: incubation in a saturated NO solution; primary amine peak disappeared, benzotriazole formed. An excerpt: The mechanism by which the above synthesized crosslinking agent DA-NOCCL reacts with nitric oxide to degrade and the ^1H NMR, FT-IR, and UV-Vis absorption data confirming this are shown in FIGS. 4 and 5.

Consider one compound from patent US12564598B2, “Nitric oxide-sensitive hydrogel” (POSTECH RESEARCH AND BUSINESS DEVELOPMENT FOUNDATION, priority 2021, dated 2026).

For the compound `C#CCCC(=O)Nc1ccc(NC(=O)CCC#C)c(N)c1` [DA-NOCCL], the “degradation in response to NO” value is “can be degraded in response to NO”.
